Laboratory results as given in US20230144619A1, “SALT OF ARYLAMINOPURINE DERIVATIVE, PREPARATION METHOD THEREFOR AND USE THEREOF” (CSPC Zhongqi Pharmaceutical Technology (Shijiazhuang) Co., …, priority 2020, published 2023).
Structures can show the parent of a compound that is named as a salt.

Key:
[1] = Solubility test (UV spectrophotometer, saturated solutions shaken 24 hours); format: physicochemical; settings: 25° C.
Method: Detection instrument: Ultraviolet spectrophotometer/Evolution 300
The following solutions with pH=1.2, pH=4.5, and pH=6.8 and water were used as the solvent, and the solvent preparation process was as follows:
(1) pH=1.2 hydrochloric acid solution: To 7.65 mL of hydrochloric acid was added 1000 mL of water, and the mixture was shaken uniformly to obtain the target solution.
(2) pH=4.5 phosphate buffer solution: 6.8 g of potassium dihydrogen phosphate was taken and diluted with water to 1000 mL, and the mixture was shaken uniformly to obtain the target solution.
(2) pH=6.8 phosphate buffer solution: 6.8 g of potassium dihydrogen phosphate and 0.896 g of sodium hydroxide were taken and diluted with water to 1000 mL, and the mixture was shaken uniformly to obtain the target solution.
(4) Water: purified water
Test tubes with stopper were taken, and 10 mL of dissolution media at various pH values were precisely added to the test tubes respectively, and excessive stock drugs were added until supersaturated solutions were formed. The adding amounts were recorded. The solutions were shaken uniformly, sealed with stoppers, and shaken for 24 hours in a shaker. 2 mL of solutions were taken out at different time points respectively, and centrifuged. The resulting supernatants were taken, filtered, and the subsequent filtrates were taken for later use.
The above-mentioned saturated solutions in different solvents were taken, and solvents were added to dilute the solutions to certain volumes. The absorbances were measured at a wavelength of 287 nm.
Preparation of a solution of the reference substance: an appropriate amount of the compound represented by Formula 1 was taken as the reference substance, and precisely weighed. A solvent was added to dissolve and dilute the reference compound to produce a solution containing about 10 μg of the compound represented by Formula 1 per 1 mL. The absorbance was measured at a wavelength of 287 nm to calculate the solubility.
The salts obtained in Examples 1 and 3-17 and the compound represented by Formula 1 were subjected to the solubility test in media and the test results were shown in the following table: […]

ALK = ALK (Homo sapiens, UniProt Q9UM73); experiment: Kinase inhibitory activity test (per WO2011/147066); format: biochemical; settings: result in words
Method: (§1) The salt sample obtained from Example 1 was tested according to the kinase inhibitory activity test described in the biological assessment of the patent application WO2011/147066.

Abl(h) = Abl(h) (Homo sapiens, UniProt P00519); experiment: as above; format: biochemical
Method: as §1

BTK = BTK (Homo sapiens, UniProt Q06187); experiment: as above; format: biochemical; settings: result in words
Method: as §1

FGFRl(h) = FGFRl(h) (Homo sapiens, UniProt P11362); experiment: as above; format: biochemical
Method: as §1

FLT3(h) = FLT3(h) (Homo sapiens, UniProt P36888); experiment: as above; format: biochemical
Method: as §1

FLT3-ITD(h) = FLT3-ITD(h) (Homo sapiens, UniProt P36888); experiment: as above; format: biochemical
Method: as §1

Fyn(h) = Fyn(h) (Homo sapiens, UniProt P06241); experiment: as above; format: biochemical
Method: as §1

Hck(h) = Hck(h) (Homo sapiens, UniProt P08631); experiment: as above; format: biochemical
Method: as §1

KDR(h) = KDR(h) (Homo sapiens, UniProt P35968); experiment: as above; format: biochemical
Method: as §1

Lck(h) = Lck(h) (Homo sapiens, UniProt P06239); experiment: as above; format: biochemical
Method: as §1

Lyn(h) = Lyn(h) (Homo sapiens, UniProt P07948); experiment: as above; format: biochemical
Method: as §1

MET = MET (Homo sapiens, UniProt P08581); experiment: as above; format: biochemical; settings: result in words
Method: as §1

PDGFRα = PDGFRα (Homo sapiens, UniProt P16234); experiment: as above; format: biochemical; settings: result in words
Method: as §1

Ret(h) = Ret(h) (Homo sapiens, UniProt P07949); experiment: as above; format: biochemical
Method: as §1

VEGFR2 = VEGFR2 (Homo sapiens, UniProt P35968); experiment: as above; format: biochemical; settings: VEGFR2, result in words
Method: as §1

Yes = Yes (Homo sapiens, UniProt P07947); experiment: as above; format: biochemical
Method: as §1

c-KIT = c-KIT (Homo sapiens, UniProt P10721); experiment: as above; format: biochemical; settings: result in words
Method: as §1

c-SRC(h) = c-SRC(h) (Homo sapiens, UniProt P12931); experiment: as above; format: biochemical
Method: as §1

[2] = tested on: human non-small cell lung cancer HCC827; experiment: In-vivo anti-tumor test, non-small cell lung cancer model; parameters: species or system nude mice; settings: once daily oral administration for 30 days
Method: The salt sample obtained from Example 1 was tested (specifically for FLT3-ITD acute myeloid leukemia, non-small cell lung cancer with EGFR activating mutations, or Ph-positive chronic myeloid leukemia) according to the in-vivo anti-tumor test described in the biological assessment of the patent application WO2011/147066.

Fyn(h), sequence (P06241 whole entry): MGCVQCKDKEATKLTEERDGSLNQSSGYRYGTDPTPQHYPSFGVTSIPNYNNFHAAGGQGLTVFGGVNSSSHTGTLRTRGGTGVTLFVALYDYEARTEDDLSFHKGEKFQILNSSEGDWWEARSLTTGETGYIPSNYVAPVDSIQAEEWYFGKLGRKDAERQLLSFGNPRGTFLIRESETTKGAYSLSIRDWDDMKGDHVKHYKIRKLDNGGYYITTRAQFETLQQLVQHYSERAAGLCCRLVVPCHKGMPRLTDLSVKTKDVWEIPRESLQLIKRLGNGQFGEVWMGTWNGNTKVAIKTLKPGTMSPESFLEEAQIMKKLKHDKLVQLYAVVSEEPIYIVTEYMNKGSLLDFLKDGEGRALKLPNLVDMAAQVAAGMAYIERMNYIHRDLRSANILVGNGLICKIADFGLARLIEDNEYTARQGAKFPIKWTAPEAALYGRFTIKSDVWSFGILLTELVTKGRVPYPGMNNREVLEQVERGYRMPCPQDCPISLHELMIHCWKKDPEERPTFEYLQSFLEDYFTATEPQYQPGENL
c-SRC(h), sequence (P12931 whole entry): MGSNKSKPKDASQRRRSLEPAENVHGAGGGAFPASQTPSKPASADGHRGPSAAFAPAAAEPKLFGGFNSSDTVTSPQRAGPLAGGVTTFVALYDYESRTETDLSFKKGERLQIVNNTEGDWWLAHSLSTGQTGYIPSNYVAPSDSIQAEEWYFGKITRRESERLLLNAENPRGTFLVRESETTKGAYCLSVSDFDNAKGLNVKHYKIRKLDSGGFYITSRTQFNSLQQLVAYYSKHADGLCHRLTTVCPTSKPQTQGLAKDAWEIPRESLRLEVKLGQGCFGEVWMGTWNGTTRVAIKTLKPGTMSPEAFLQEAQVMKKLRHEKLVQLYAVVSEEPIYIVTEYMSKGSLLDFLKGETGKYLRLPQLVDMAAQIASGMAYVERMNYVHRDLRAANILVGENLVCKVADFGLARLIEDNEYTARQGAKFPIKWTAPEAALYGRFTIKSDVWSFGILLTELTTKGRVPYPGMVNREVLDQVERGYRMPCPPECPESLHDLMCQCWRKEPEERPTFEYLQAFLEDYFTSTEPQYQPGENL
FLT3(h), sequence (P36888 27-993): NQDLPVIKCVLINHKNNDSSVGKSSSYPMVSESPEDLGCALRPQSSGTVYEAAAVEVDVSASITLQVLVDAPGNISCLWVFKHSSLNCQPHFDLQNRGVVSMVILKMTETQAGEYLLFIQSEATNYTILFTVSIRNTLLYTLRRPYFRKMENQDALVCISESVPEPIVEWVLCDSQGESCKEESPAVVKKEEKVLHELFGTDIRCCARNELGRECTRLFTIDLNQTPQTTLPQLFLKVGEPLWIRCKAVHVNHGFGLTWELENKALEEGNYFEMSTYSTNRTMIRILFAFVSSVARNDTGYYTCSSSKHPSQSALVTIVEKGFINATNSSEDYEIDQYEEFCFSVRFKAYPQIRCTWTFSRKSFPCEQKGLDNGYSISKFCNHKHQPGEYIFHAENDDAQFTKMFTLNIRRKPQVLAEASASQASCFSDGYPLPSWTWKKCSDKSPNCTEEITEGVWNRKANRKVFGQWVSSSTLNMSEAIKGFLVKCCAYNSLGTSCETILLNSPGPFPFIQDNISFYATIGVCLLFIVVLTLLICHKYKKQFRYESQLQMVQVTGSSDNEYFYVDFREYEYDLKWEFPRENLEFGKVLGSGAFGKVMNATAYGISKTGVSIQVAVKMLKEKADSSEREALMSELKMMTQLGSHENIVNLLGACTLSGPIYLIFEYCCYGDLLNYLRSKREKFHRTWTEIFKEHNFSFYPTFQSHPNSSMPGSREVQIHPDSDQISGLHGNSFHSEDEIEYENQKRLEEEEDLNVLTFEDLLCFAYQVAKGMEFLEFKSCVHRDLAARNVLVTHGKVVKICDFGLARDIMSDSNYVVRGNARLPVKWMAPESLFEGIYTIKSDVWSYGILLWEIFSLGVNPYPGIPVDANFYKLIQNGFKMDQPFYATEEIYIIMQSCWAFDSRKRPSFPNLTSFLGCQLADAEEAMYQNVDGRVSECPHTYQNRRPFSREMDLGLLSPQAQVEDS
ALK, sequence (Q9UM73 19-1620): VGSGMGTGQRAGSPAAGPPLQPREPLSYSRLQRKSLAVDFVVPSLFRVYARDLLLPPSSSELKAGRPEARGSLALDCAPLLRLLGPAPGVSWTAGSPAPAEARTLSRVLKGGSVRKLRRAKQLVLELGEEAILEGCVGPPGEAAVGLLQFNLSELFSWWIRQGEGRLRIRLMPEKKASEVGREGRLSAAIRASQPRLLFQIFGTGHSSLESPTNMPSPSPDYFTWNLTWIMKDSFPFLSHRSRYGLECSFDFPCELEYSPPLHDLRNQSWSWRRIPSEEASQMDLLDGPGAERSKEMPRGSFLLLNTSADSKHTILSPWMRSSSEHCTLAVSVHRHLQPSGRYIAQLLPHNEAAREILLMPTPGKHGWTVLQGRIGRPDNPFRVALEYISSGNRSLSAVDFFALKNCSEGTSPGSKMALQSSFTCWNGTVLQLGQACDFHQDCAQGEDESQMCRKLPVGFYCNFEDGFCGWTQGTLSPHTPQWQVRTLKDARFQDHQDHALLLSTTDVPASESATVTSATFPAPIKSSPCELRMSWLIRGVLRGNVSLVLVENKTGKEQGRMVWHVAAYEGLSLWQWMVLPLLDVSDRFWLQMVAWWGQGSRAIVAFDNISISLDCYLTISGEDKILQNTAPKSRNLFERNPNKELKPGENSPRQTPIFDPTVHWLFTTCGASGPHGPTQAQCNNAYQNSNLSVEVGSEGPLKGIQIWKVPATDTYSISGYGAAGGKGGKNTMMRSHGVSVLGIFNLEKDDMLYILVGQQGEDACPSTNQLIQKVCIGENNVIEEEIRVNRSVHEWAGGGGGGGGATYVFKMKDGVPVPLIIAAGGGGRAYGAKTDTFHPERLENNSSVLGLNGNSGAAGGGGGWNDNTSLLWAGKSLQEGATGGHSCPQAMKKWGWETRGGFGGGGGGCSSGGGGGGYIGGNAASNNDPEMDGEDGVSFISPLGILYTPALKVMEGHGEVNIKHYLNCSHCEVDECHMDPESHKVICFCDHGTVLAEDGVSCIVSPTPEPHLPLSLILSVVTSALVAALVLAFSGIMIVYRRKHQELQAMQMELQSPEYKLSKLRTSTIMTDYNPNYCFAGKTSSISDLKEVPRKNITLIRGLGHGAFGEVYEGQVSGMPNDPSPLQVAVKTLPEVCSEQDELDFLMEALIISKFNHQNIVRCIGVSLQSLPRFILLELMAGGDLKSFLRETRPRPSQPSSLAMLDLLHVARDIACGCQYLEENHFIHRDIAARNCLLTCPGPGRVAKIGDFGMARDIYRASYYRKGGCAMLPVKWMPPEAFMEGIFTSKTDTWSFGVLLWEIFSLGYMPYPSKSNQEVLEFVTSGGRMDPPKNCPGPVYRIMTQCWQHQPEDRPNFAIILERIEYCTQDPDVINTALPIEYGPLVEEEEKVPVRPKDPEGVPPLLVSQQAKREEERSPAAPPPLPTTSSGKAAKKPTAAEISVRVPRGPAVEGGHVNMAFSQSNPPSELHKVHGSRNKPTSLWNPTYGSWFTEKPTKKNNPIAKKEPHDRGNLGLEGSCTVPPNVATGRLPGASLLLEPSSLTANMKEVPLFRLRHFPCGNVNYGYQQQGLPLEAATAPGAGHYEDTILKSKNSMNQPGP
c-KIT, sequence (P10721 26-976): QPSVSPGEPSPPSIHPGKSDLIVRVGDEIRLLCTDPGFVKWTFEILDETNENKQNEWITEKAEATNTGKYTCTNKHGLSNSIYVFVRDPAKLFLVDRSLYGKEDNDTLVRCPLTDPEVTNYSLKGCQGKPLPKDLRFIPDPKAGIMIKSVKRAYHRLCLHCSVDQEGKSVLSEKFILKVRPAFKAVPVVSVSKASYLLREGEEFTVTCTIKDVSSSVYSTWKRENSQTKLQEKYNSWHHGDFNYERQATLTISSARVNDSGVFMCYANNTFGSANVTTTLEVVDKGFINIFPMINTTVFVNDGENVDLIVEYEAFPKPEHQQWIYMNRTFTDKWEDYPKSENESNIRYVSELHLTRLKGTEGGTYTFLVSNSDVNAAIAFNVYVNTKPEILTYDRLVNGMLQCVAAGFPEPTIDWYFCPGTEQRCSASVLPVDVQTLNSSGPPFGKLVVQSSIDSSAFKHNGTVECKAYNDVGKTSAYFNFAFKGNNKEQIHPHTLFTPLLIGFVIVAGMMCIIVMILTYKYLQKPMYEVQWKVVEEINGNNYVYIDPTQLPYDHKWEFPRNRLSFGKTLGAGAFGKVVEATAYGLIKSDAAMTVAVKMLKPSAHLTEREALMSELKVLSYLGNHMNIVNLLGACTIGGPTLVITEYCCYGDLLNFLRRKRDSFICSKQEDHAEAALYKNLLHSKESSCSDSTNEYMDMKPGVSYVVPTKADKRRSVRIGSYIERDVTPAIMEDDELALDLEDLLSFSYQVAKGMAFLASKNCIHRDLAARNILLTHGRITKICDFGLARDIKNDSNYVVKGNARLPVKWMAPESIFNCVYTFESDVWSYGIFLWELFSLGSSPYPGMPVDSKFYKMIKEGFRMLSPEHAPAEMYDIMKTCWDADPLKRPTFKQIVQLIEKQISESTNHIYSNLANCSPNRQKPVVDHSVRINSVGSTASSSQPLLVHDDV
Lyn(h), sequence (P07948 whole entry): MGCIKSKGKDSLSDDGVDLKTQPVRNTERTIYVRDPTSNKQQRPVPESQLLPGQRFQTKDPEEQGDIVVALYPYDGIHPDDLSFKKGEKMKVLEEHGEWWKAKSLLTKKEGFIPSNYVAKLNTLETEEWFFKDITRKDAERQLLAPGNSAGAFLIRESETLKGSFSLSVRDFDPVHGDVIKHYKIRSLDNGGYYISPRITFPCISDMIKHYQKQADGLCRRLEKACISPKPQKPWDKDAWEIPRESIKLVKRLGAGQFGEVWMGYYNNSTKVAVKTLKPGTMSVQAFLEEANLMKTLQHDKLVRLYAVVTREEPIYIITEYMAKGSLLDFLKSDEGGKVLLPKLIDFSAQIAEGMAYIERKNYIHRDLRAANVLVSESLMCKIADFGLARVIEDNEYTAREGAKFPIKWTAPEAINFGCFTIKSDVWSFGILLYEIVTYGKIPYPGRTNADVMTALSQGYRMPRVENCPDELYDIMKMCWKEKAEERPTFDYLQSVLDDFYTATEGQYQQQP

CC(C)n1c(Nc2cccnc2)nc2cnc(Nc3ccc(N4CCN(C)CC4)cc3)nc21 [Example 1, arylaminopurine derivative.trihydrochloride.pentahydrate]
Solubility, Water medium pH = 1.2 ([1]; pH=1.2 hydrochloric acid solution): 33.89 mg/mL
Solubility, Water medium pH = 4.5 ([1]; pH=4.5 phosphate buffer solution): 47.27 mg/mL
Solubility, Water medium pH = 6.8 ([1]; pH=6.8 phosphate buffer solution): 50.62 mg/mL
Solubility, Water medium ([1]; water (purified water)): 40.41 mg/mL
inhibition of kinase activity (ALK): could inhibit the activities
IC50 (Abl(h)): 25 nM
inhibition of kinase activity (BTK): could inhibit the activities
IC50 (FGFRl(h)): 247 nM
IC50 (FLT3(h)): 26 nM
IC50 (FLT3-ITD(h)): 3 to 10 nM
IC50 (Fyn(h)): 34 nM
IC50 (Hck(h)): 93 nM
IC50 (KDR(h)): 323 nM
IC50 (Lck(h)): 37 nM
IC50 (Lyn(h)): 7 nM
inhibition of kinase activity (MET): could inhibit the activities
inhibition of kinase activity (PDGFRα): could inhibit the activities
IC50 (Ret(h)): 10 nM
inhibition of kinase activity (VEGFR2): could inhibit the activities
IC50 (Yes): 4 nM
inhibition of kinase activity (c-KIT): could inhibit the activities
IC50 (c-SRC(h)): 176 nM
growth of human non-small cell lung cancer HCC827 ([2]; 7.5, 15 and 30 mg/kg, dose dependence): dose-dependently inhibit the growth
tumor size compared with the initial tumor ([2]; HCC827, 7.5 mg/kg): tumor shrinkage
tumor size compared with the initial tumor ([2]; HCC827, 15 mg/kg): tumor shrinkage
regression of the tumor ([2]; HCC827, 30 mg/kg): nearly complete regression of the tumor
tumor size compared with the initial tumor ([2]; HCC827, 30 mg/kg): tumor shrinkage
